Measured values taken from the METLIN SMRT retention time set (Domingo-Almenara et al. 2019).

Test: gradient 5% acetonitrile 3 min, to 50% in 2 min, to 85% in 15 min, held 3 min, 100 µL/min
Details: column: Zorbax Extend-C18 2.1 x 50 mm; eluents: water / acetonitrile, 0.1% formic acid
Method in brief: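 Each retention time is based on an adduct peak selected computationally and verified by manual inspection. Measurements used HPLC–quadrupole time-of-flight mass spectrometry in positive and negative ionization mode on mixtures of ~100 pure standards. Chromatography ran on a Zorbax Extend-C18 column (2.1 × 50 mm, 1.8 μm) at 100 μL/min with water and acetonitrile, each containing 0.1% formic acid, and dead and dwell volumes of 40 μL and 900 μL.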

| Compound | RP-LC retention time [s] |
| --- | --- |
| Cc1cccc(-c2ncccc2CNS(=O)(=O)c2ccc(F)cc2)c1 | 724 |
| CCOC(=O)c1ccc(NC(=O)C2CCCN(S(C)(=O)=O)C2)cc1 (stereo not drawn) | 762 |
| CCOC(=O)c1ccccc1NC(=O)N1CCC2(CC1)NC(=O)c1ccccc1O2 | 922 |
| CCC1CN2C=NC(N3CCN(C(=O)NCc4cccc(F)c4)CC3)=CC2=N1 (stereo not drawn) | 615 |
| COc1cccc(NC(=O)C2CCN(c3cc(N4CCCCC4)ncn3)CC2)c1 | 708 |
| CCc1noc(-c2cnc3nc(C)ccc3c2Nc2ccc3c(c2)OCO3)n1 | 720 |
| c1cc(N2CCSCC2)ncc1-c1noc(CN2CCOCC2)n1 | 702 |
| COCCn1cc(C(=O)N2CCc3ccccc32)c2nn(-c3ccccc3)c(=O)c-2c1 | 789 |
| CCc1ccccc1NC(=O)N1CCc2nc(-c3ccccc3)ncc2C1 | 924 |
| Clc1ccccc1-c1nc(-c2ccc(-n3cccn3)nc2)no1 | 1270 |
| COCCc1nnc(NC(=O)c2ccc3c(c2)CCCC3)o1 | 702 |
| FC(F)(F)c1ccc(/C=C/c2nc(COc3ccc(CCCCn4ccnn4)cc3)co2)cc1 | 1170 |
| CCc1noc(NC(C)=O)c1-c1ccc(C)c(S(=O)(=O)Nc2cccc(C(F)(F)F)c2)c1 | 889 |
| CC1CCCN(CCCNC(=O)C2CCCN(c3ncnc4c3nc3n4CCCCC3)C2)C1 (stereo not drawn) | 585 |
| Cc1ccc(S(=O)(=O)Nc2ccncc2)c(C)c1N(C)S(=O)(=O)c1ccc(F)cc1 | 625 |
| CC(C)(C)NC(=O)c1ccc2nc(-c3ccccc3)cn2c1 | 783 |
| CC(C)NC(=O)Cn1c2ccccc2n2c(=O)cc(-c3cccc(Cl)c3)nc12 | 926 |
| O=C(c1nc(-c2cccc(F)c2)n2c1CCCCC2)N1CCN(c2ncccn2)CC1 | 724 |
| CCn1cc(S(=O)(=O)N2CC(F)(F)C[C@H]2COc2cccnc2)cn1 | 636 |
| CC(C)NC(=O)c1cc(-c2ccncc2)n[nH]1 | 553 |
| Cn1cc(C(=O)Nc2ccc3c(c2)OCO3)c2cccnc21 | 730 |
| CCn1nc(C)n2cc(S(=O)(=O)NCc3cccc(C)c3)cc2c1=O | 882 |

| Compound | RP-LC retention time [s] |
| --- | --- |
| Cc1ccc(-c2nc3cnccn3c2NCCC(=O)NC(C)c2ccccn2)cc1 (stereo not drawn) | 586 |
| CCn1c(=O)c(N2CCN(C(=O)NCCCOC)CC2)nc2ccccc21 | 727 |
| O=C(NC1CC1)[C@@H]1C[C@H](Oc2ccccc2)CN1C(=O)c1ccco1 | 700 |
| COc1ccc(CCNC(=O)Cn2nc3n(c2=O)CCCC3)cc1OC | 613 |
| Cc1cc(C)nc(SCc2nnc(SCC(=O)Nc3nccs3)o2)n1 | 600 |
| CCc1nnc(-c2ccc(S(=O)(=O)N3CCN(C(C)C)CC3)o2)o1 | 592 |
| CCCn1cc(-c2nc(-c3ccccn3)no2)c(=O)c2cc(F)ccc21 | 761 |
| Cc1cc(S(=O)(=O)NCC2CCCO2)cc([N+](=O)[O-])c1C (stereo not drawn) | 778 |
| CCn1ccc2sc(C)c(C(=O)NCc3cc(C)ccc3C)c2c1=O | 959 |
| Cc1cc(C)cc(NC(=O)C2CCCN(c3ncnc4c3nc3n4CCCCC3)C2)c1 (stereo not drawn) | 907 |
| COc1ccc(-c2cc3nn(CC(=O)Nc4cccc(OC)c4)c(=O)n3c(C)n2)cc1 | 681 |
| CC(=O)Nc1ccc(NC(=O)C2CCCN(c3nc4ccccc4nc3C(F)(F)F)C2)cc1 (stereo not drawn) | 910 |
| COC(=O)c1ncn2c1C(=O)N(c1cc(C)cc(C)c1)C(C)(C(=O)NCc1ccccc1)C2 (stereo not drawn) | 747 |
| Cc1cc2[nH]c(C(=O)Nc3ccc(F)c(F)c3F)c(CN(C)C)c2s1 | 688 |
| CS(=O)(=O)N1CCC(OC2CCN(C(=O)Cc3c[nH]c4ccccc34)CC2)CC1 | 688 |
| CCCNC(=O)C1CCCN(c2ccc(SCC(=O)Nc3ccc(OC)cc3)nn2)C1 (stereo not drawn) | 647 |
| O=C(CCCn1c(=O)c2cccn2c2ccccc21)NCc1ccccn1 | 621 |
| CCC(C)NC(=O)CCn1c(=O)c2ccccc2n2c(=O)n(Cc3ccc(F)cc3)nc12 (stereo not drawn) | 890 |
| CC(C)CNC(=O)N1CCc2c(c(-c3nc(-c4ccc(F)cc4)no3)nn2C)C1 | 940 |
| c1ccc(-n2nnc(-c3noc(-c4ccco4)n3)c2-c2ccncc2)cc1 | 787 |
| COC[C@@H]1CN(S(=O)(=O)c2ccc(C#N)cc2)C[C@H]1c1ccncc1 | 746 |
| Cc1cc(C)cc(NC(=O)N2CCCC(Cn3c(C)nc4cccnc43)C2)c1 (stereo not drawn) | 671 |

| Compound | RP-LC retention time [s] |
| --- | --- |
| CC(C)CNC(=O)N1CC(n2cc(C(=O)N(C)C)nn2)C1 | 609 |
| O=C(NCCc1c[nH]c2ccccc12)C1CC(=O)N(CCc2ccccc2)C1 (stereo not drawn) | 758 |
| COc1ccc(OC)c(S(=O)(=O)N2CCc3nc(-c4ccc(Cl)cc4)ncc3C2)c1 | 1160 |
| O=C(CS(=O)Cc1cnn(-c2ccccc2)c1-n1cccc1)NCc1ccccc1 (stereo not drawn) | 797 |
| O=C(Cn1c(=O)c2cc(C3CC3)nn2c2ncccc21)NCc1ccccc1 | 727 |
| Cc1cccc(NC(=O)N2CCCC(C)(C(=O)NCc3ccc(F)cc3)C2)c1C (stereo not drawn) | 929 |
| Cc1nc(-c2cc(S(=O)(=O)N3CCC(C(=O)N4CCCCCC4)CC3)c(C)s2)no1 | 919 |
| CCc1ccc(NS(=O)(=O)c2cc(-c3c(CC)noc3NC(C)=O)ccc2C)cc1 | 886 |
| CCCc1nnc(C(=O)Nc2cccc(C(=O)NCCc3c[nH]c4ccc(Cl)cc34)c2)s1 | 981 |
| CCOc1ccccc1C(=O)N1CCCC1c1nc(-c2ccccc2OC)no1 (stereo not drawn) | 886 |
| COc1ccccc1C(CNC(=O)c1cc(=O)c2cc(C)c(C)cc2o1)N(C)C (stereo not drawn) | 651 |
| COC[C@@H]1CN(S(=O)(=O)c2ccccc2)C[C@H]1c1nc(C)no1 | 803 |
| O=C(NCCc1nc(-c2ccc3c(c2)OCO3)n[nH]1)c1cc(F)ccc1Cl | 660 |
| Cc1ccccc1CNS(=O)(=O)c1cn(C(C)C)c2ncccc12 | 960 |
| CCc1ccc(N2CCC(C(=O)NCCc3c[nH]c4ccc(C)cc34)C2=O)cc1 (stereo not drawn) | 1010 |
| COc1cccc(-n2ccn3cc(-c4cccc(Cl)c4)nc3c2=O)c1 | 837 |
| O=C(NCC1CCCCC1)c1ccc2c(c1)nc1n2CCN(C2CCCCC2)C1=O | 872 |
| O=C(Cn1ccn2nc(-c3ccc(F)cc3)c(CO)c2c1=O)NCCC1=CCCCC1 | 900 |
| O=C(CSc1ncc(-c2cccc(Cl)c2)o1)Nc1ccccc1C(F)(F)F | 1070 |
| CCc1ccc(Nc2c(C(=O)N3CCCC(C)C3)cnc3nc(C)ccc23)cc1 (stereo not drawn) | 702 |
| Cc1ccc2nc(-c3ccc(O)cc3)c(Nc3ccc4c(c3)OCCO4)n2c1 | 646 |
| CN(C)c1cccc(-c2nc(C3CC(=O)N(c4ccccc4)C3)no2)c1 (stereo not drawn) | 1030 |

| Compound | RP-LC retention time [s] |
| --- | --- |
| O=C(NC1CCCC1)N1CCN(Cc2nc3cc(C(=O)N4CCCCC4)ccc3o2)CC1 | 644 |
| COc1cccc(CNC(=O)C2(C)CCCN(C(=O)Nc3cc(C)cc(C)c3)C2)c1 (stereo not drawn) | 961 |
| CCc1ccc(S(=O)(=O)N2CCN(Cc3nc4cc(C(C)(C)C)ccc4o3)CC2)cc1 | 998 |
| c1ccc(CNc2cc(-n3ccnc3)ncn2)cc1 | 610 |
| Cc1nc(-c2ccccc2)sc1C(=O)N1CCCC1 | 824 |
| COC(=O)c1cc(OCC(=O)NC2CCCCC2)c2cc(OC)c(OC)cc2n1 | 725 |
| CCC(C)C(NC(=O)c1ccc2c(c1)OCO2)C(=O)Nc1nc2ccccc2[nH]1 (stereo not drawn) | 718 |
| Cn1c(N2CCN(C(=O)c3ccc4c(c3)OCO4)CC2)cc(=O)n(C)c1=O | 637 |
| CCOC(=O)c1c(NC(=O)CSc2nnc(-c3cccnc3)o2)sc2c1CCC2 | 932 |
| COc1ccc(N2CC(C(=O)N3CCC(C(=O)NC4CCS(=O)(=O)C4)CC3)CC2=O)cc1 (stereo not drawn) | 603 |
| Cc1ccc(F)cc1NC(=O)c1sc(-c2cn(C)c3ncccc23)nc1C | 983 |
| O=C(NC1CC1)c1cc(-c2ccc(F)cc2)n[nH]1 | 705 |
| CCOc1ccc(NC(=O)N2CCCC(C)(C(=O)NCc3cccc(OC)c3)C2)cc1 (stereo not drawn) | 872 |
| COc1ccc(C)cc1NC(=O)CN1C(=O)C(C)(C)c2cc(C)ccc21 | 588 |
| CCOC(=O)c1ccc2nc(C)cc(NC(=O)c3ccco3)c2c1 | 583 |
| CCC(=O)N(C1CCOCC1)C1CCN(S(=O)(=O)c2ccc(Cl)cc2C)CC1 | 911 |
| COc1cccc(CCC(=O)N2CCc3cc(-c4csc(C)n4)ccc32)c1 | 1040 |
| Cc1ccc(Nc2c(-c3cccc(O)c3)nc3ncccn23)cc1C | 705 |
| CCOC(=O)[C@H](CCc1ccccc1)N[C@@H](C)C(=O)N1CCC[C@@H]1C(=O)O | 647 |
| O=C(CN1C(=O)CC(c2cccs2)=Nc2ccccc21)Nc1ccc(F)cc1F | 946 |
| Cc1noc(-c2ccnc(-n3ncc(C(=O)NC4CCCCCC4)c3C)c2)n1 | 968 |
| CCN(CC)C(=O)c1ccc2c(c1)nnn2CCNC(=O)Nc1cc(F)ccc1F | 714 |
